Structures can show the parent of a compound that is named as a salt.

The source of these data is patent publication US20170233491A1 (Merrimack Pharmaceuticals, Inc., priority 2016, published 2017).

Data set [1] deals with HRG mRNA expression in CFPAC-1 cells. Description: HRG mRNA expression in CFPAC-1 cells after chemotherapy treatment. The following applies: FIG. 3. It counts as cell-based. As for the experimental part: HRG mRNA expression was quantified after 24 h treatment with 1 mM of gemcitabine or 0.1 mM of paclitaxel, and normalized to housekeeping gene expression. “Vehicle”=drug-free vehicle control; “Gem”=gemcitabine treated; “Pac”=paclitaxel treated.

The subject of data set [2] is preclinical models of pancreatic cancer. The following applies: combined with nab-paclitaxel and gemcitabine; cited from earlier work.
Data set [3] has the same test system. Description: preclinical models of pancreatic cancer, combination with nab-paclitaxel and gemcitabine. It counts as in vivo. The following applies: KRAS mutant pancreatic cancer models.
The conditions of data set [4]: Phase 1 study; cited from earlier work.
The test system of data set [5] is pancreatic cancer models. The data set is described as follows: IGF-1- and HRG-mediated insensitivity to gemcitabine or paclitaxel. The data set is classed as cell-based. Conditions: preclinical research.
For data set [6], the system named is IGF-1R and ErbB3 signaling. The data set is described as follows: growth factor-induced (IGF-1, heregulin) signaling in pancreatic cancer models. Conditions: preclinical research. It counts as cell-based.
The test system of data set [7] is IGF-1R and ErbB3 signaling. Conditions: background description; cited from earlier work.
Data set [8] has as its target receptor complexes containing IGF-1R and ErbB3 (Homo sapiens, UniProt P08069+P21860). Conditions: including heterodimers with insulin receptor and with ErbB2; cited from earlier work.

Chain of receptor complexes containing IGF-1R and ErbB3 (P08069 31-736 limits assumed): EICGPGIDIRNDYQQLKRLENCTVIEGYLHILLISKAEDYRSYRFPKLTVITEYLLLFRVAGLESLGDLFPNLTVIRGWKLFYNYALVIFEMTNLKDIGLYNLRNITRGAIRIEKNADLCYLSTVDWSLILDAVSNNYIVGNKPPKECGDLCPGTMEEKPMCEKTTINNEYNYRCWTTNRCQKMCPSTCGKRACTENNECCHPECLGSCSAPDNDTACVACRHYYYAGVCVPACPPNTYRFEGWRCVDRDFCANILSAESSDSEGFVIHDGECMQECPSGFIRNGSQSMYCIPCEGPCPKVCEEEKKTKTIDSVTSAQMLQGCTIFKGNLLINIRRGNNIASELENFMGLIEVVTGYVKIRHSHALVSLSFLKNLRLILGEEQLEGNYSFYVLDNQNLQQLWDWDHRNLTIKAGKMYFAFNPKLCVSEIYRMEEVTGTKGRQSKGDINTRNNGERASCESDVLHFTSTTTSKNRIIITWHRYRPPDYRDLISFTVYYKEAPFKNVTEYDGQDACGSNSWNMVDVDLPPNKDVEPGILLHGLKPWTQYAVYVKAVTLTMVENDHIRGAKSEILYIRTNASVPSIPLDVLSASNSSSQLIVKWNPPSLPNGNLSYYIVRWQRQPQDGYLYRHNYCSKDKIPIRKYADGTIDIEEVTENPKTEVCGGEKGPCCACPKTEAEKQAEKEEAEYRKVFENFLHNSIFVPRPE
Chain of receptor complexes containing IGF-1R and ErbB3 (P08069 741-1367 limits assumed): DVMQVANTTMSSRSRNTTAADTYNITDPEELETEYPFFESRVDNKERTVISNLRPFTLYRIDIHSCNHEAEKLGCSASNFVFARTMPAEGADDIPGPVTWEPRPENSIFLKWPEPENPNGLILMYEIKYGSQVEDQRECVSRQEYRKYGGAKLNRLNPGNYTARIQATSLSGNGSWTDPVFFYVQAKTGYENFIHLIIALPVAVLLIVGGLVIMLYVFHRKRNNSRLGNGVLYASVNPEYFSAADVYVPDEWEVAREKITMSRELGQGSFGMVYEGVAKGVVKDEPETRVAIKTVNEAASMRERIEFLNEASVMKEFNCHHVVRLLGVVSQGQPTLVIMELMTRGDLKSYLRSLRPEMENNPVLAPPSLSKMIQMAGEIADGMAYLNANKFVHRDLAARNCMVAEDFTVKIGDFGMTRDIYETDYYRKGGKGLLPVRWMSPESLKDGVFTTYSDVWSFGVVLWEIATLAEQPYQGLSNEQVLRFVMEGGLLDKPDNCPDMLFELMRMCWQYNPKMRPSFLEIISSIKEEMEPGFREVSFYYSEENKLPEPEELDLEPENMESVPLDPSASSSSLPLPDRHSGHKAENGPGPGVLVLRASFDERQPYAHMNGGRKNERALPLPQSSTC
Chain of receptor complexes containing IGF-1R and ErbB3 (P21860 20-1342): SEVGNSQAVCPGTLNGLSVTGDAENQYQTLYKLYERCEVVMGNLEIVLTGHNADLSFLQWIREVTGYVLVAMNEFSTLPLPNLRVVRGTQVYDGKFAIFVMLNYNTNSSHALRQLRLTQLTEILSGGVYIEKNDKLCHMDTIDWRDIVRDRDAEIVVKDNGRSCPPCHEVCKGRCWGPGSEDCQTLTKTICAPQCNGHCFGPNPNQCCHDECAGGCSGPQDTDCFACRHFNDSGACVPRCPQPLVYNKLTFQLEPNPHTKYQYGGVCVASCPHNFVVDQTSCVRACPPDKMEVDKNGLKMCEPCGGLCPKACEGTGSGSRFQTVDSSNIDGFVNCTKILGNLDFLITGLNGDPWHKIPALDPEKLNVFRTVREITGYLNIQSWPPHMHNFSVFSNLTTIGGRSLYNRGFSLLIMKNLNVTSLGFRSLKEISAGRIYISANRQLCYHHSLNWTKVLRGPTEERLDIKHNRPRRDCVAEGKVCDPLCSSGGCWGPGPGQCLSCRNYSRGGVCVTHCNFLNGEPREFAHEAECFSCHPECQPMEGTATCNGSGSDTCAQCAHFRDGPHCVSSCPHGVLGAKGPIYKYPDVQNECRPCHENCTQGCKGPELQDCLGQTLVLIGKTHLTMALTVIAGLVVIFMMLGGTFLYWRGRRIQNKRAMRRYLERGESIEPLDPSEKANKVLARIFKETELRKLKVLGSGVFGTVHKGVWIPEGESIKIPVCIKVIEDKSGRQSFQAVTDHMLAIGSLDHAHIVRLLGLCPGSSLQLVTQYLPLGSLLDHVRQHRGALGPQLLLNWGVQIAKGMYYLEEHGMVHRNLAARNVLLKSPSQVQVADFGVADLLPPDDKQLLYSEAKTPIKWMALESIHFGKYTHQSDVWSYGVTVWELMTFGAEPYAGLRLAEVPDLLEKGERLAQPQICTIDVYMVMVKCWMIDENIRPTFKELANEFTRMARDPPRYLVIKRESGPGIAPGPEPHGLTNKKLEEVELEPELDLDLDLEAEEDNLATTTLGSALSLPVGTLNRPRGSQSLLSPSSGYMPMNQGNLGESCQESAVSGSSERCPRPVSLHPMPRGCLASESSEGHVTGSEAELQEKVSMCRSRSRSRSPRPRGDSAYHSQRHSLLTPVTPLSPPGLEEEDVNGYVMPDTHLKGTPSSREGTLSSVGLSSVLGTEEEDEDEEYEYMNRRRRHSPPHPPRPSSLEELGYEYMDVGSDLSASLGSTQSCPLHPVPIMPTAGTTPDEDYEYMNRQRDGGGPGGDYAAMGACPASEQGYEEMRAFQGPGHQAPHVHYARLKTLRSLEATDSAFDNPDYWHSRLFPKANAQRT

For the molecule `Nc1ccn([C@@H]2O[C@H](CO)[C@@H](O)C2(F)F)c(=O)n1` [gemcitabine, 2′-deoxy-2′,2′-difluorocytidine monohydrochloride (-isomer)], in data set [1] (24 h treatment with 1 mM of gemcitabine), the “HRG mRNA expression, normalized to housekeeping gene expression” value is on record as “increases HRG mRNA expression”.
For `CC(=O)O[C@H]1C(=O)[C@@]2(C)[C@H]([C@H](OC(=O)c3ccccc3)[C@]3(O)C[C@H](OC(=O)[C@H](O)[C@@H](NC(=O)c4ccccc4)c4ccccc4)C(C)=C1C3(C)C)[C@]1(OC(C)=O)CO[C@@H]1C[C@@H]2O` [paclitaxel], the “HRG mRNA expression, normalized to housekeeping gene expression” value in data set [1] (24 h treatment with 0.1 mM of paclitaxel) is “increases HRG mRNA expression”.
“Istiratumab: recombinant fully human bispecific tetravalent antibody directed at IGF-1R and ErbB3; light chain SEQ ID NO: 1, heavy chain SEQ ID NO: 2”: the tumor regression result in data set [2] is on record as “significant tumor regression, including durable complete responses”. Besides, the “potentiation of anti-tumor activity of nab-paclitaxel/gemcitabine” value in data set [3] is “potentiates the anti-tumor activity of nab-paclitaxel/gemcitabine”. In addition, the safety and tolerability result in data set [4] is “safe and tolerable”. Further, the “reversal of IGF-1- and HRG-mediated insensitivity to gemcitabine or paclitaxel” value in data set [5] was “reverses IGF-1- and HRG-mediated insensitivity to gemcitabine or paclitaxel”. Besides, the “growth factor-induced survival signaling” value in data set [6] is listed as “inhibits growth factor-induced survival signaling”. The “IGF-1 and heregulin-induced signaling” value in data set [7] is “co-blocks IGF-1 and heregulin-induced signaling”. The “degradation of receptor complexes containing IGF-1R and ErbB3” value in data set [8] is “induces degradation of receptor complexes containing IGF-1R and ErbB3”.
